Where two headings read alike, the source gives them in different places.
Key:
Format in all cases: cell-based
HCT116 cells = assay: Inhibition of HCT116 cells (MTS cell proliferation); conditions: for OD value 1 / OD value 2: 490 nm; for OD value 1 / OD value 2 / inhibition at 0.4 µM / inhibition at 0.8 µM / inhibition at 1.6 µM / inhibition at 3.2 µM / inhibition at 6.25 µM / inhibition at 12.5 µM / inhibition at 25 µM / inhibition at 50 µM / inhibition at 100 µM: 72 h; for inhibition at 0.4 µM / inhibition at 0.8 µM / inhibition at 1.6 µM / inhibition at 3.2 µM / inhibition at 6.25 µM / inhibition at 12.5 µM / inhibition at 25 µM / inhibition at 50 µM / inhibition at 100 µM / IC50: Homo sapiens, HCT-116
Protocol: Inhibition of HCT116 Cells Cells: HCT116 cells, ATCC Passage unknown, Mycoplasma free. Medium: DMEM Medium (GIBCO Cat #11995073) supplemented with 10% fetal bovine serum (Hyclone Cat #SH30396.03). Seeding: 750 cells/well (100 μL) into 96-wells plate, incubated overnight at 37° C. in a humidified, 5% CO2 atmosphere. Treatment: Test compounds and Gemcitabine were prepared in a serial dilution (1:2) by culture medium. Fifty microliters (50 uL) of serially diluted solutions were added into each well. The final concentrations of the positive control and test compounds were shown in the graphs. The cells were incubated for 72 hours after addition of the test compounds. MTS: 15 uL of MTS solution (Promega Cat #G5430) was added into each well and incubated with cells for 4 hours at 37° C. in a humidified, 5% CO2 atmosphere. Measurement: Absorbance at 490 nm was measured using MD Spectramax Plus384 spectrophotometer. The regression curves were calculated by the GraphPad Prism 5 using “log(inhibitor) vs response—variable slope”. Calculation: % of inhibition=(ODzero ctrl−OD compound)/ODzero ctrl*100.

Ovcar-3 cells = assay: Inhibition of Ovcar 3 cells (MTS cell proliferation); conditions: for OD value 1 / OD value 2: 490 nm; for OD value 1 / OD value 2 / inhibition at 0.4 µM / inhibition at 0.8 µM / inhibition at 1.6 µM / inhibition at 3.2 µM / inhibition at 6.25 µM / inhibition at 12.5 µM / inhibition at 25 µM / inhibition at 50 µM / inhibition at 100 µM: 72 h; for inhibition at 0.4 µM / inhibition at 0.8 µM / inhibition at 1.6 µM / inhibition at 3.2 µM / inhibition at 6.25 µM / inhibition at 12.5 µM / inhibition at 25 µM / inhibition at 50 µM / inhibition at 100 µM / IC50: Homo sapiens, OVCAR-3
Protocol: Inhibition of Ovcar 3 Cells Cells: Ovcar-3 cells, ATCC Passage 4, Mycoplasma free. Medium: RPMI-1640 Medium (GIBCO Cat #22400121) supplemented with 10% fetal bovine serum (Hyclone Cat #SH30396.03). Seeding: 3,000 cells/well (100 uL) were seeded into 96-wells plate, incubated overnight at 37° C. in a humidified, 5% CO2 atmosphere. Treatment: Test compounds and Gemcitabine were prepared in a serial dilution (1:2) by culture medium. Fifty microliters (50 uL) of serially diluted solutions were added into each well. The final concentrations of the positive control and test compounds were shown in the graphs. The cells were incubated for 72 hours after addition of the test compounds. MTS: 15 uL of MTS solution (Promega Cat #G5430) was added into each well and incubated with cells for 4 hours at 37° C. in a humidified, 5% CO2 atmosphere. Measurement: Absorbance at 490 nm was measured using MD Spectramax Plus384 spectrophotometer. The regression curves were calculated by the GraphPad Prism 5 using “log(inhibitor) vs response—variable slope”.

Jurkat = assay: Cell proliferation study Jurkat

In the case of `Nc1ccn([C@@H]2O[C@H](CO)[C@@H](O)C2(F)F)c(=O)n1` [Gemcitabine], the “OD value 1” value (HCT116 cells; 0.400 uM, replicate 1) is reported as 0.799, the “OD value 2” value (HCT116 cells; 0.400 uM, replicate 2) is reported as 0.766 and the “OD value 1” value (HCT116 cells; 0.800 uM, replicate 1) is reported as 0.619. The “OD value 2” value (HCT116 cells; 0.800 uM, replicate 2) was 0.723, the “OD value 1” value (HCT116 cells; 1.600 uM, replicate 1) was 0.452 and the “OD value 2” value (HCT116 cells; 1.600 uM, replicate 2) was 0.535. The “OD value 1” value (HCT116 cells; 3.200 uM, replicate 1) was 0.083, the “OD value 2” value (HCT116 cells; 3.200 uM, replicate 2) was 0.083 and the “OD value 1” value (HCT116 cells; 6.250 uM, replicate 1) was 0.076. For the same molecule, the “OD value 2” value (HCT116 cells; 6.250 uM, replicate 2) was 0.065, the “OD value 1” value (HCT116 cells; 12.500 uM, replicate 1) was 0.065 and the “OD value 2” value (HCT116 cells; 12.500 uM, replicate 2) was 0.063. The “OD value 1” value (HCT116 cells; 25.000 uM, replicate 1) was 0.075, the “OD value 2” value (HCT116 cells; 25.000 uM, replicate 2) was 0.061 and the “OD value 1” value (HCT116 cells; 50.000 uM, replicate 1) was 0.036. For the same molecule, the “OD value 2” value (HCT116 cells; 50.000 uM, replicate 2) was 0.046, the “OD value 1” value (HCT116 cells; 100.000 uM, replicate 1) was 0.037 and the “OD value 2” value (HCT116 cells; 100.000 uM, replicate 2) was 0.037. The inhibition at 0.4 µM (HCT116 cells; 0.400 uM, replicate 1, read-out: % of inhibition 1) was 18.8%, the inhibition at 0.4 µM (HCT116 cells; 0.400 uM, replicate 2, read-out: % of inhibition 2) was 20.9% and the inhibition at 0.8 µM (HCT116 cells; 0.800 uM, replicate 1, read-out: % of inhibition 1) was 37.2%. The inhibition at 0.8 µM (HCT116 cells; 0.800 uM, replicate 2, read-out: % of inhibition 2) was 25.3%, the inhibition at 1.6 µM (HCT116 cells; 1.600 uM, replicate 1, read-out: % of inhibition 1) was 54.1% and the inhibition at 1.6 µM (HCT116 cells; 1.600 uM, replicate 2, read-out: % of inhibition 2) was 44.7%. It also gave an inhibition at 3.2 µM (HCT116 cells; 3.200 uM, replicate 1, read-out: % of inhibition 1) of 91.6%, an inhibition at 3.2 µM (HCT116 cells; 3.200 uM, replicate 2, read-out: % of inhibition 2) of 91.4% and an inhibition at 6.25 µM (HCT116 cells; 6.250 uM, replicate 1, read-out: % of inhibition 1) of 92.3%. It also gave an inhibition at 6.25 µM (HCT116 cells; 6.250 uM, replicate 2, read-out: % of inhibition 2) of 93.3%, an inhibition at 12.5 µM (HCT116 cells; 12.500 uM, replicate 1, read-out: % of inhibition 1) of 93.4% and an inhibition at 12.5 µM (HCT116 cells; 12.500 uM, replicate 2, read-out: % of inhibition 2) of 93.5%. For the same molecule, the inhibition at 25 µM (HCT116 cells; 25.000 uM, replicate 1, read-out: % of inhibition 1) was 92.4%, the inhibition at 25 µM (HCT116 cells; 25.000 uM, replicate 2, read-out: % of inhibition 2) was 93.7% and the inhibition at 50 µM (HCT116 cells; 50.000 uM, replicate 1, read-out: % of inhibition 1) was 96.4%. For the same molecule, the inhibition at 50 µM (HCT116 cells; 50.000 uM, replicate 2, read-out: % of inhibition 2) was 95.2%, the inhibition at 100 µM (HCT116 cells; 100.000 uM, replicate 1, read-out: % of inhibition 1) was 96.3% and the inhibition at 100 µM (HCT116 cells; 100.000 uM, replicate 2, read-out: % of inhibition 2) was 96.2%. The IC50 (HCT116 cells; Table 17, read-out: HCT-116* 50% inhibition concentration) was 1.29 µM, the IC50 (HCT116 cells; Table 26, HCT116, 72 hours, read-out: 50% viability conc.) was 1.29 µM and the IC50 (HCT116 cells; Table 26, HCT116, 72 hours, read-out: IC50) was 1.42 µM. The Maximal inhibition % (HCT116 cells; Table 26, HCT116, 72 hours) was 96.25%, the “OD value 1” value (Ovcar-3 cells; 0.400 μM, replicate 1) was 0.591 and the “OD value 2” value (Ovcar-3 cells; 0.400 μM, replicate 2) was 0.575. The “OD value 1” value (Ovcar-3 cells; 0.800 μM, replicate 1) was 0.490, the “OD value 2” value (Ovcar-3 cells; 0.800 μM, replicate 2) was 0.460 and the “OD value 1” value (Ovcar-3 cells; 1.600 μM, replicate 1) was 0.440. For the same molecule, the “OD value 2” value (Ovcar-3 cells; 1.600 μM, replicate 2) was 0.453, the “OD value 1” value (Ovcar-3 cells; 3.200 μM, replicate 1) was 0.411 and the “OD value 2” value (Ovcar-3 cells; 3.200 μM, replicate 2) was 0.432. The “OD value 1” value (Ovcar-3 cells; 6.250 μM, replicate 1) was 0.363, the “OD value 2” value (Ovcar-3 cells; 6.250 μM, replicate 2) was 0.388 and the “OD value 1” value (Ovcar-3 cells; 12.500 μM, replicate 1) was 0.257. The “OD value 2” value (Ovcar-3 cells; 12.500 μM, replicate 2) was 0.234, the “OD value 1” value (Ovcar-3 cells; 25.000 μM, replicate 1) was 0.040 and the “OD value 2” value (Ovcar-3 cells; 25.000 μM, replicate 2) was 0.009. For the same molecule, the “OD value 1” value (Ovcar-3 cells; 50.000 μM, replicate 1) was 0.020, the “OD value 2” value (Ovcar-3 cells; 50.000 μM, replicate 2) was 0.010 and the “OD value 1” value (Ovcar-3 cells; 100.000 μM, replicate 1) was 0.012. The “OD value 2” value (Ovcar-3 cells; 100.000 μM, replicate 2) was 0.011, the inhibition at 0.4 µM (Ovcar-3 cells; 0.400 μM, replicate 1, read-out: % of inhibition 1) was 1.5% and the inhibition at 0.4 µM (Ovcar-3 cells; 0.400 μM, replicate 2, read-out: % of inhibition 2) was -4.93%. For the same molecule, the inhibition at 0.8 µM (Ovcar-3 cells; 0.800 μM, replicate 1, read-out: % of inhibition 1) was 18.3%, the inhibition at 0.8 µM (Ovcar-3 cells; 0.800 μM, replicate 2, read-out: % of inhibition 2) was 16.1% and the inhibition at 1.6 µM (Ovcar-3 cells; 1.600 μM, replicate 1, read-out: % of inhibition 1) was 26.6%. It also gave an inhibition at 1.6 µM (Ovcar-3 cells; 1.600 μM, replicate 2, read-out: % of inhibition 2) of 17.4%, an inhibition at 3.2 µM (Ovcar-3 cells; 3.200 μM, replicate 1, read-out: % of inhibition 1) of 31.5% and an inhibition at 3.2 µM (Ovcar-3 cells; 3.200 μM, replicate 2, read-out: % of inhibition 2) of 21.2%. For the same molecule, the inhibition at 6.25 µM (Ovcar-3 cells; 6.250 μM, replicate 1, read-out: % of inhibition 1) was 39.5%, the inhibition at 6.25 µM (Ovcar-3 cells; 6.250 μM, replicate 2, read-out: % of inhibition 2) was 29.2% and the inhibition at 12.5 µM (Ovcar-3 cells; 12.500 μM, replicate 1, read-out: % of inhibition 1) was 57.2%. It also gave an inhibition at 12.5 µM (Ovcar-3 cells; 12.500 μM, replicate 2, read-out: % of inhibition 2) of 57.3%, an inhibition at 25 µM (Ovcar-3 cells; 25.000 μM, replicate 1, read-out: % of inhibition 1) of 93.4% and an inhibition at 25 µM (Ovcar-3 cells; 25.000 μM, replicate 2, read-out: % of inhibition 2) of 98.4%. The inhibition at 50 µM (Ovcar-3 cells; 50.000 μM, replicate 1, read-out: % of inhibition 1) was 96.7%, the inhibition at 50 µM (Ovcar-3 cells; 50.000 μM, replicate 2, read-out: % of inhibition 2) was 98.1% and the inhibition at 100 µM (Ovcar-3 cells; 100.000 μM, replicate 1, read-out: % of inhibition 1) was 98%. It also gave an inhibition at 100 µM (Ovcar-3 cells; 100.000 μM, replicate 2, read-out: % of inhibition 2) of 98%, an IC50 (Ovcar-3 cells; Table 18, read-out: OVCAR-3* 50% inhibition concentration) of 11.2 µM and an IC50 (Ovcar-3 cells; Table 26, Ovcar3, 72 hours, read-out: 50% viability conc.) of 11.2 µM. The IC50 (Ovcar-3 cells; Table 26, Ovcar3, 72 hours, read-out: IC50) was 9.87 µM, the Maximal inhibition % (Ovcar-3 cells; Table 26, Ovcar3, 72 hours) was 98% and the “Jurkat‡ % at 10 μM” value (Jurkat) was 3.2%.

Reference: patent US9073903B2, “Imidazole-2,4-dione inhibitors of casein kinase 1” (Jasco Pharmaceuticals, LLC, priority 2010, dated 2015)
